# According to patent publication US9133199B2, “Pyrimidine derivatives as protein kinase inhibitors” (Cyclacel Limited, priority 2007, dated 2015):
# pIC50: −log10 of the molar value.
# What was measured:
# AA (aurora kinase A) = AA (aurora kinase A) (Homo sapiens (Human), UniProt O14965); assay: AA kinase inhibition (Table 1); assay type: biochemical; conditions: Table 2; read-out: AurA IC50
# [1] = Pharmacokinetics in fasted conscious CD-1 mice (iv and oral); assay type: in vivo; conditions: compared to compounds A-G
# Description: Preliminary investigations of the pharmacokinetics of selected compounds were carried out in fasted conscious CD-1 mice (25-30 g). Compounds were dosed as 1 mg/kg by intravenous administration or 5-10 mg/kg by oral route. Twenty one male mice per administration route (n=3 mice per time point) received dose solution by single bolus injection in the tail vein or by oral gavage. Blood samples were collected by cardiac puncture at 5, 15, 30, 60, 120, 240 and 360 min following iv administration and at 30, 60, 120, 240, 360, 480 and 1440 min following oral administration. Blood samples were collected into tubes containing the anti-coagulant lithium heparin, mixed and placed promptly on crushed ice. Plasma was derived from whole blood by centrifugation, frozen and stored at −80° C. prior to analysis. Plasma concentrations were determined by liquid chromatography-tandem mass spectrometry in electrospray positive mode (ESI LC/MS/MS) using calibration curves prepared in the appropriate matrix. The lower level of quantification (LLOQ) in all cases was ca. 5 ng/mL. Plasma concentration-time data was processed using the computer program WinNonLin version 5.2 from which areas under the plasma concentration-time curve (AUCall) were calculated by non-compartmental analysis using Model 201 (IV-bolus Input) or Model 200 (Extravascular Input).
# FIG. 1 plots the area under the curve (AUC) for plasma concentration vs time for each compound tested. The dosing vehicle across these experiments remained constant (intravenous=citrate buffer pH 3, 1 mL/kg; oral=DMA/PEG400/10 mM Tartrate buffer, pH 4 (1:3:6), 5 ml/kg). FIG. 2 represents the same data in the form of oral bioavailability (% F) for each compound.
# A2780/ADR cells = assay: Cell viability assay (Alamar Blue, 72 hours), MDR line; assay type: cell-based, human; conditions: paired parental and MDR tumour cell lines (A2780-A2780/ADR, MES-SA-MES-SA/Dx5)
# Description: In vitro cell viability assays have been used to measure the effect of drug accumulation in paired parental and drug resistant tumour cell lines. The pairs used are the human ovarian carcinoma A2780 line with its MDR counterpart A2780/ADR and the human uterine sarcoma MES-SA line with its MDR counterpart MES-SA/Dx5 [Wesolowska O., et al. (2005) Anticancer Res., 25, 383-389].
# Method: Cultivated human tumour cells of the ovarian cell line A2780 and its doxorubicin-resistant pair, A2780/ADR and the uterine cell line MES-SA and its doxorubicin-resistant pair, MES-SA/DX5 were seeded at 3000 cells per well in Nunc 96-well tissue culture plates, 100 μl per well in DMEM media containing 10% foetal calf serum and penicillin/streptomycin. […] The plates were then read at 544/595 nm.
# The amount of Alamar Blue reagent reacted represents the metabolic activity of the cells. […] The values were calculated from the average of three individual measurements with blank correction (medium-only control).
# The assay was performed on the Biomek FxP, automation platform from Beckman Coulter. The plates were read on the Paradigm plate reader supplied by Beckman Coulter. Asymmetry ratios were calculated as the IC50 value of the compound in the drug resistant cells divided by the IC50 value in the parental cells. […]
# AA (aurora kinase A), sequence (O14965 whole entry, species assumed): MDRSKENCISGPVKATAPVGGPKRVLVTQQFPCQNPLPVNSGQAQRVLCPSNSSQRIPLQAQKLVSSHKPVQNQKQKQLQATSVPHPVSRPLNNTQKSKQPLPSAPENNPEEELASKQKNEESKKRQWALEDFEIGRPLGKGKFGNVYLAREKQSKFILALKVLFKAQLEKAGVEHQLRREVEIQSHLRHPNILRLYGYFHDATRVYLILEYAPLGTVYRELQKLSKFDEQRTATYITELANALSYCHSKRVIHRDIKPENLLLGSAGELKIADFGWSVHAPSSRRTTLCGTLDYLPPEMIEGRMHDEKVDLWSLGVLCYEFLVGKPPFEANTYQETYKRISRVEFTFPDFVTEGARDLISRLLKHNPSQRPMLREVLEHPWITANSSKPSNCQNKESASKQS
structure (smiles),measurement,setting,value
"CN1C(=O)CCN(C2CCCC2)c2nc(Nc3cccc4cc[nH]c34)ncc21 [Compound 98, 9-Cyclopentyl-2-(1H-indol-7-ylamino)-5-methyl-5,7,8,9-tetra-hydro-pyrimido[4,5-b] [1,4]diazepin-6-one]",pIC50,AA (aurora kinase A),> 6.00
CN1C(=O)CCN2CCC(=O)Nc3cccc(c3)Nc3ncc1c2n3 [Compound 282],pIC50,AA (aurora kinase A),> 5.00
"COc1cc(C(=O)N[C@H]2CC[C@H](N3CCN(CC4CC4)CC3)CC2)ccc1Nc1ncc2c(n1)N(C1CCCC1)CC1(CC1)C(=O)N2C [Compound 371, 4-(9′-cyclopentyl-5′-methyl-6′-oxo-5′,6′,8′,9′-tetrahydrospiro[cyclopropane-1,7′-pyrimido[4,5-b][1,4]diazepine]-2′-ylamino)-N-((trans)-4-(4-(cyclopropylmethyl)piperazin-1-yl)cyclohexyl)-3-methoxybenzamide]",oral bioavailability (% F),[1],markedly superior
same,systemic exposure (AUC of plasma concentration vs time),[1]; iv 1 mg/kg and oral 5-10 mg/kg,markedly superior
same,cellular efflux (MDR/parental cell asymmetry),A2780/ADR cells,low cellular efflux
"COc1cc(C(=O)N[C@H]2CC[C@H](N3CCN(CC4CC4)CC3)CC2)ccc1Nc1ncc2c(n1)N(C1CCCC1)CC(C)(C)C(=O)N2C [Compound 372, 4-(9-cyclopentyl-5,7,7-trimethyl-6-oxo-6,7,8,9-tetrahydro-5H-pyrimido[4,5-b][1,4]diazepin-2-ylamino)-N-((trans)-4-(4-(cyclopropylmethyl)piperazin-1-yl)cyclohexyl)-3-methoxybenzamide]",cellular efflux (MDR/parental cell asymmetry),A2780/ADR cells,low cellular efflux
